Assay results from PubChem BioAssay (NCI).
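Following 48 hours of exposure in 96-well plates, responses at five concentrations were used to interpolate endpoints linearly. The concentration for 50% growth inhibition is given as GI50. TGI: total growth inhibition.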

How the values were obtained:
Assay in all cases: growth of human tumour cells (NCI), 48 h
MCF7 breast = system: MCF7 breast
SN12C renal = system: SN12C renal
DU-145 prostate = system: DU-145 prostate
HCT-116 colon = system: HCT-116 colon
COLO 205 colon = system: COLO 205 colon
786-0 renal = system: 786-0 renal
HOP-92 NSCLC = system: HOP-92 NSCLC
OVCAR-8 ovarian = system: OVCAR-8 ovarian
NCI-H226 lung = system: NCI-H226 lung
MDA-MB-468 breast = system: MDA-MB-468 breast
HT29 colon = system: HT29 colon
CAKI-1 renal = system: CAKI-1 renal
SW-620 colon = system: SW-620 colon
HCT-15 colon = system: HCT-15 colon
T-47D breast = system: T-47D breast
U251 CNS = system: U251 CNS
SK-MEL-2 melanoma = system: SK-MEL-2 melanoma
MDA-MB-231 breast = system: MDA-MB-231 breast
HL-60(TB) leukemia = system: HL-60(TB) leukemia
NCI-H23 lung = system: NCI-H23 lung
MDA-MB-435 = system: MDA-MB-435
NCI-H460 lung = system: NCI-H460 lung
TK-10 renal = system: TK-10 renal
NCI/ADR-RES ovarian = system: NCI/ADR-RES ovarian
SF-268 CNS = system: SF-268 CNS
UO-31 renal = system: UO-31 renal
UACC-257 melanoma = system: UACC-257 melanoma
MALME-3M melanoma = system: MALME-3M melanoma
HOP-62 NSCLC = system: HOP-62 NSCLC
RXF 393 renal = system: RXF 393 renal
CCRF-CEM leukemia = system: CCRF-CEM leukemia
HS 578T breast = system: HS 578T breast
NCI-H522 lung = system: NCI-H522 lung
SK-MEL-28 melanoma = system: SK-MEL-28 melanoma
HCC-2998 colon = system: HCC-2998 colon
UACC-62 melanoma = system: UACC-62 melanoma
ACHN renal = system: ACHN renal
EKVX NSCLC = system: EKVX NSCLC
IGROV1 ovarian = system: IGROV1 ovarian
KM12 colon = system: KM12 colon
OVCAR-3 ovarian = system: OVCAR-3 ovarian
BT-549 breast = system: BT-549 breast
K-562 leukemia = system: K-562 leukemia
SK-MEL-5 melanoma = system: SK-MEL-5 melanoma
SF-295 CNS = system: SF-295 CNS
OVCAR-4 ovarian = system: OVCAR-4 ovarian
RPMI-8226 leukemia = system: RPMI-8226 leukemia
SF-539 CNS = system: SF-539 CNS
M14 melanoma = system: M14 melanoma
SR leukemia = system: SR leukemia
MOLT-4 leukemia = system: MOLT-4 leukemia
OVCAR-5 ovarian = system: OVCAR-5 ovarian
A549 NSCLC = system: A549 NSCLC
A498 renal = system: A498 renal
SK-OV-3 ovarian = system: SK-OV-3 ovarian
SNB-19 CNS = system: SNB-19 CNS
LOX IMVI melanoma = system: LOX IMVI melanoma
PC-3 prostate = system: PC-3 prostate

## COc1ccc(C(=O)/C=C/c2cccc(Cl)c2Cl)cc1S(N)(=O)=O
MCF7 breast
  GI50: 3.17 µM
  TGI: 13.7 µM
SN12C renal
  GI50: 1.82 µM
  TGI: 3.91 µM
DU-145 prostate
  GI50: 2.86 µM
  TGI: 10.2 µM
HCT-116 colon
  GI50: 1.31 µM
  TGI: 2.72 µM
COLO 205 colon
  GI50: 2.75 µM
  TGI: 10.3 µM
786-0 renal
  GI50: 1.88 µM
  TGI: 4.28 µM
HOP-92 NSCLC
  GI50: 5.44 µM
  TGI: 17.2 µM
OVCAR-8 ovarian
  GI50: 2.37 µM
  TGI: 8.78 µM
NCI-H226 lung
  GI50: 2.3 µM
  TGI: 7.5 µM
MDA-MB-468 breast
  GI50: 2.93 µM
  TGI: 13.1 µM
HT29 colon
  GI50: 1.52 µM
  TGI: 2.99 µM
CAKI-1 renal
  GI50: 4.36 µM
  TGI: 15 µM
SW-620 colon
  GI50: 1.58 µM
  TGI: 3.3 µM
HCT-15 colon
  GI50: 1.29 µM
  TGI: 2.94 µM
T-47D breast
  GI50: 3.94 µM
  TGI: 16.4 µM
U251 CNS
  GI50: 1.31 µM
  TGI: 2.48 µM
SK-MEL-2 melanoma
  GI50: 11.3 µM
  TGI: 22.3 µM
MDA-MB-231 breast
  GI50: 2.57 µM
  TGI: 7.61 µM
HL-60(TB) leukemia
  GI50: 7.84 µM
  TGI: 34.2 µM
NCI-H23 lung
  GI50: 3.8 µM
  TGI: 14.3 µM
MDA-MB-435
  GI50: 9.65 µM
  TGI: 20.7 µM
NCI-H460 lung
  GI50: 1.89 µM
  TGI: 4.94 µM
TK-10 renal
  GI50: 5.18 µM
  TGI: 16.9 µM
NCI/ADR-RES ovarian
  GI50: 1.89 µM
  TGI: 4.75 µM
SF-268 CNS
  GI50: 3.45 µM
  TGI: 14.5 µM
UO-31 renal
  GI50: 1.48 µM
  TGI: 3.51 µM
UACC-257 melanoma
  GI50: 11.2 µM
  TGI: 22.5 µM
MALME-3M melanoma
  GI50: 9.71 µM
  TGI: 20.1 µM
HOP-62 NSCLC
  GI50: 2.3 µM
  TGI: 7.12 µM
RXF 393 renal
  GI50: 2.09 µM
  TGI: 8.56 µM
CCRF-CEM leukemia
  GI50: 5.74 µM
  TGI: 33.3 µM
HS 578T breast
  GI50: 8.64 µM
  TGI: 32.1 µM
NCI-H522 lung
  GI50: 3.01 µM
  TGI: 12.6 µM
SK-MEL-28 melanoma
  GI50: 11.1 µM
  TGI: 22 µM
HCC-2998 colon
  GI50: 4.21 µM
  TGI: 15.5 µM
UACC-62 melanoma
  GI50: 4.85 µM
  TGI: 16.2 µM
ACHN renal
  GI50: 1.77 µM
  TGI: 3.9 µM
EKVX NSCLC
  GI50: 10.3 µM
  TGI: 20.9 µM
IGROV1 ovarian
  GI50: 3.24 µM
  TGI: 12.4 µM
KM12 colon
  GI50: 1.99 µM
  TGI: 4.8 µM
OVCAR-3 ovarian
  GI50: 1.8 µM
  TGI: 4.42 µM
BT-549 breast
  GI50: 4.73 µM
  TGI: 17 µM
K-562 leukemia
  GI50: 2.67 µM
  TGI: 24.1 µM
SK-MEL-5 melanoma
  GI50: 9.19 µM
  TGI: 19.4 µM
SF-295 CNS
  GI50: 3.89 µM
  TGI: 14.7 µM
OVCAR-4 ovarian
  GI50: 3.97 µM
  TGI: 16.7 µM
RPMI-8226 leukemia
  GI50: 2.88 µM
  TGI: 16.2 µM
SF-539 CNS
  GI50: 1.41 µM
  TGI: 2.61 µM
M14 melanoma
  GI50: 9.52 µM
  TGI: 21 µM
SR leukemia
  GI50: 1.54 µM
  TGI: 5.36 µM
MOLT-4 leukemia
  GI50: 2.09 µM
  TGI: 6 µM
OVCAR-5 ovarian
  GI50: 1.91 µM
  TGI: 5.78 µM
A549 NSCLC
  GI50: 2.52 µM
  TGI: 9.42 µM
A498 renal
  GI50: 9.6 µM
  TGI: 20 µM
SK-OV-3 ovarian
  GI50: 12.4 µM
  TGI: 23.8 µM
SNB-19 CNS
  GI50: 5.09 µM
  TGI: 16.1 µM
LOX IMVI melanoma
  GI50: 1.38 µM
  TGI: 2.54 µM
PC-3 prostate
  GI50: 4.49 µM
  TGI: 16.6 µM
